Results from article doi:10.1101/2021.07.09.451751v1, “Identification of general acid catalyst for the ATPase activity of Lynch syndrome-related MutL homologs” (biorxiv, 2021).
Substitutions are numbered along the chain they refer to.

Legend:
[1] = biological target: T1, aqMutL NTD (Aquifex aeolicus, UniProt O67518); test: equilibrium dialysis; type: binding
T1 construct: gene mutL; recombinant from E. coli
T1 sequence (O67518 1-319 limits assumed): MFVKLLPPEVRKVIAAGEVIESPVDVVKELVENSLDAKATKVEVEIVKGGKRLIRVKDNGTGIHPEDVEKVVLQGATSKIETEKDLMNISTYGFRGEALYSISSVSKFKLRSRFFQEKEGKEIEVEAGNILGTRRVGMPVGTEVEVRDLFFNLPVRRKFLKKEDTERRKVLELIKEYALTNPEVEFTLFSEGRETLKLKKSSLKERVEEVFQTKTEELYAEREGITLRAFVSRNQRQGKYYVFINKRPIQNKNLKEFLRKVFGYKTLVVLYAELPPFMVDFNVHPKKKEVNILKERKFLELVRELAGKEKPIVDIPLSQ

[2] = biological target: T2, aqMutL NTD (Aquifex aeolicus, UniProt O67518, K79A); test: equilibrium dialysis; type: binding
T2 construct: gene mutL; recombinant from E. coli
T2 sequence (O67518 1-319 K79A limits assumed): T1 sequence (O67518 1-319 limits assumed) with K79A

Structure (SMILES): Nc1ncnc2c1ncn2[C@@H]1O[C@H](COP(=O)(O)OP(=O)(O)NP(=O)(O)O)[C@@H](O)[C@H]1O [AMPPNP]
- Kd [1]: 300 µM
- Kd [2]: 340 µM
